Laboratory results reported in patent publication US6147097A, “Imidazole derivatives as anti-HIV agents” (Shionogi & Co., Ltd., priority 1994, dated 2000).
≈ marks a conversion by molar mass, not a printed value. Counter-ions that a name gives are not always drawn. Like-named read-outs stand apart in the source and are kept apart here.

How the values were obtained:
[1] = cytotoxicity in MT-4 cells (MTT, culture medium in place of HIV); assay type: cell-based; settings: human
Procedure: (§1) The anti-HIV activity of each of the compounds produced in Examples was assayed by the following procedures. (1) Human T cell line MOLT-4 clone 8 persistently infected by HIV (HTLV-IIIB strain) was cultured in an RPMI-1640 medium supplemented with 10% fetal calf serum, the culture supernatant was filtered, and the titer of virus was determined; the culture supernatant was stored at -80° C. On the other hand, the test compound was diluted with the above culture medium to predetermined concentrations and distributed in 50 μl aliquots into a 96-well microtiter plate. Then, d suspension of MT-4 cells was added in 100 μl aliquots (3.5×10^4 cells per well) and then the above HIV-containing supernatant diluted with the above culture medium was added, 50 μl (60 pfu (plaque forming units)) per well. (2) The plate was incubated in a CO2 incubator at 37° C. for 5 days. Then, 30 μl/well of 3-(4,5-dimethyl thiazol-2-yl)-2,5-diphenyltetrazolium bromide (MTT) (5 mg/ml PBS) was added and the incubation was further continued for 1 hour. The surviving cells reducing MTT yield precipitation of formazan. Therefore, 150 μl portions of the culture supernatant were removed from all wells and, instead, 150 μl of a solution (10% Triton X-100 and 0.4% (v/v) HCl-added isopropyl alcohol) was added. The plate was shaken on a plate mixer to dissolve the formazan. The OD of formazan was measured with a microreader at 560 nm arid 690 nm (reference wavelength) and the result was compared with that of control.
The cytotoxicity of each of the compounds produced in Examples was assayed. In place of the HIV-containing supernatant (the virus suspension) in (1) in Test Example 1, 50 μl of the culture medium was added to each well, and the cytotoxicity was determined in the same manner as that for (2) in Test Example 1.

HIV (HTLV-IIIB strain) = assay: microbe, parasite or virus in culture; assay type: cell-based; settings: Human immunodeficiency virus 1, IIIB, MT4, 120 h
Procedure: as §1, with “(1) Human T cell line MOLT-4 clone 8 persistently infected by HIV (HTLV-IIIB strain) was cultured in an RPMI-1640 medium supplemented with 10% fetal calf serum, the culture supernatant was filtered, and the titer of virus was determined; the culture supernatant was stored at -80° C.” left out, “formazan.” for “formazan. The OD of formazan was measured with a microreader at 560 nm arid 690 nm (reference wavelength) and the result was compared with that of control.”

[2] = biological target: T1, purified recombinant HIV-1 reverse transcriptase (Human immunodeficiency virus type 1 group M subtype B, UniProt P04585); assay: reverse transcriptase inhibition, poly(rA)/(dT) template primer, [3H]dTTP uptake; assay type: biochemical
T1 construct: purified recombinant HIV-1 reverse transcriptase; made in house; host or cells: Escherichia coli
Procedure: The reverse transcriptase activity of each of the compounds synthesized in Examples was assayed by the following procedures.
Using the purified recombinant HIV-1 reverse transcriptase RT, E.C. 2.7.7.49) obtained by expression in Escherichia Coli, a 96-well plate assay system was established for assaying a large number of samples. The RT inhibitory activity was determined as follows. To 11 μl of a solution of the test inhibitor in water or MSO was added 100 μl of a reaction mixture (0.1 unit/100 μl RT, 50 mM Tris-HCl pH 8.3, 150 mM KCl, 10 mM MgCl2, 3 mM dithiothreitol, 0.1% Nonidet P-40, 10 μg/ml. poly(rA) and 10 μg/ml (dT)12-1.8 as template and primer, and 4 μM dTTP, 1 μCi/100 μl [^3 H]dTTP as substrate) and the mixture was incubated at 37° C. for 1 hour and, then, immediately cooled on ice. Using a cell harvester, the reaction mixture was transferred to a DEAE-filter mat (LKB-Pharmacia). Then, using the wash line of the cell harvester, the cells were washed twice with 5% Na2 HPO4 /H2 O and once with water and dried at 95° C. for 15 minutes. […] The inhibitory activity was expressed in percent inhibition relative to the uptake on water or DMSO control.

[3] = MT-4 cells, no virus, 37° C., 5 days, MTT, Table 3, read-out: CC50
[4] = MT-4 cells, 60 pfu HIV per well, 37° C., 5 days, MTT, Tables 1 and 2, read-out: EC50

| Molecule | CC50 at 120 h [1, 3] [µg/mL] | IC50 [2] [µM] | other results |
| --- | --- | --- | --- |
| CC(C)c1nc(CN)n(C)c1S(=O)(=O)c1cc(Cl)cc(Cl)c1 [Compound I-111, 2-aminomethyl-5-(3,5-dichlorophenylsulfonyl)-4-isopropyl-1-methyl-1H-imidazole] | 1 to 10 (≈ 2.76 to 27.6 µM) | – | – |
| CC(C)c1nc(COC(N)=O)n(Cc2ccncc2)c1Sc1cc(Cl)cc(Cl)c1 [I-93', 2-carbamoyloxymethyl-5-(3,5-dichlorophenylthio)-4-isopropyl-1-(pyridin-4-yl)methyl-1H-imidazole] | 10 to 100 (≈ 22.2 to 222 µM) | – | EC50 (HIV (HTLV-IIIB strain)): 0.06 to 0.13 ng/mL (≈ 0.000133 to 0.000288 µM) |
| CC(C)c1nc(COC(N)=O)n(Cc2ccc[nH]c2=O)c1Sc1cc(Cl)cc(Cl)c1 [Compound I-132, 2-carbamoyloxymethyl-5-(3,5-dichlorophenylthio)-1-(2-oxo-1,2-dihydro-pyridin-3-yl)methyl-4-isopropyl-1H-imidazole] | – | 1.39 | CC50 at 120 h ([1]; mt-4 cells): 12.5 to 25 µg/mL (≈ 26.7 to 53.5 µM) |
| CC(C)c1nc(CN)n(C)c1[S+]([O-])c1cc(Cl)cc(Cl)c1 (stereo not drawn) [Compound I-110, 2-aminomethyl-5-(3,5-dichlorophenylsulfinyl)-4-isopropyl-1-methyl-1H-imidazole] | 10 to 100 (≈ 28.9 to 289 µM) | – | EC50 (HIV (HTLV-IIIB strain); [4]): 10000 ng/mL (≈ 28.9 µM) |
| CCn1c(COC(N)=O)nc(C(C)C)c1Sc1cccc([N+](=O)[O-])c1 [Compound I-49, 2-carbamoyloxymethyl-1-ethyl-4-isopropyl-5-(3-nitrophenylthio)-1H-imidazole] | 25 (≈ 68.6 µM) | – | EC50 (HIV (HTLV-IIIB strain)): 4 to 8 ng/mL (≈ 0.011 to 0.022 µM) |
| Cc1ccc(S(=O)(=O)NCc2nc(C(C)C)c(Sc3cc(Cl)cc(Cl)c3)n2C)cc1 [Compound I-88, 5-(3,5-dichlorophenylthio)-4-isopropyl-1-methyl-2-p-toluenesulfonylaminomethyl-1H-imidazole] | 1 to 10 (≈ 2.06 to 20.6 µM) | > 206 | – |
| CCCCCCCCCCCCn1c(CO)nc(C(C)C)c1Sc1cc(Cl)cc(Cl)c1 [Compound I-18, [5-(3,5-dichlorophenylthio)-1-dodecyl-4-isopropyl-1H-imidazol-2-yl]methanol] | 10 to 100 (≈ 20.6 to 206 µM) | > 206 | – |
| CC(=O)NCc1nc(C(C)C)c(Sc2cc(Cl)cc(Cl)c2)n1C [Compound I-83] | 6.3 to 12.5 (≈ 16.9 to 33.6 µM) | 218 | – |
| CC(=O)OCCOCc1nc(Sc2cc(Cl)cc(Cl)c2)c(C(C)C)n1C [Compound I-64, 2-[4-(3,5-dichlorophenylthio)-5-isopropyl-1-methyl-1H-imidazol-2-yl]methoxy} ethyl acetate] | 12.5 to 25 | > 240 | – |
| CC(C)c1nc(CO)[nH]c1[S+]([O-])c1cc(Cl)cc(Cl)c1 (stereo not drawn) [Compound I-113, [5-(3,5-dichlorophenylsulfinyl)-4-isopropyl-1H-imidazol-2-yl]methanol] | 100 (≈ 300 µM) | – | EC50 (HIV (HTLV-IIIB strain); [4]): 100000 ng/mL (≈ 300 µM) |
| CC(C)c1nc(CO)[nH]c1S(=O)(=O)c1cc(Cl)cc(Cl)c1 [Compound I-114, [5-(3,5-dichlorophenylsulfonyl)-4-isopropyl-1H-imidazol-2-yl]methanol] | 10 to 100 (≈ 28.6 to 286 µM) | – | EC50 (HIV (HTLV-IIIB strain); [4]): 10000 ng/mL (≈ 28.6 µM) |
| CC(C)c1nc(CO)n(Cc2cccc(N)c2)c1Sc1cc(Cl)cc(Cl)c1 [Compound I-118, 1-(m-aminobenzyl)-5-(3,5-dichlorophenylthio)-2-hydroxymethyl-4-isopropyl-1H-imidazole] | – | 2.13 | CC50 at 120 h ([1]; mt-4 cells): 12.5 to 25 µg/mL (≈ 29.6 to 59.2 µM) |
| CCCn1c(COC(N)=O)nc(C(C)C)c1Sc1cccc([N+](=O)[O-])c1 [Compound I-50, 2-carbamoyloxymethyl-4-isopropyl-5-(3-nitrophenylthio)-1-n-propyl-1H-imidazole] | > 100 | – | EC50 (HIV (HTLV-IIIB strain); [4]): 8 ng/mL (≈ 0.0211 µM) |
| CC(C)c1nc(COC(N)=O)n(Cc2ccccn2)c1Sc1cc(Cl)cc(Cl)c1 [Compound I-93] | 12.5 (≈ 27.7 µM) | – | EC50 (HIV (HTLV-IIIB strain)): 0.5 to 1 ng/mL (≈ 0.00111 to 0.00222 µM) |
| CC(C)c1nc(CO)n(C)c1S(=O)(=O)c1cc(Cl)cc(Cl)c1 [Compound I-109, [5-(3,5-dichlorophenylsulfonyl)-4-isopropyl-1-methyl-1H-imidazol-2-yl]methanol] | > 100 | – | EC50 (HIV (HTLV-IIIB strain); [4]): 500 ng/mL (≈ 1.38 µM) |
| CC(C)c1nc(COC(N)=O)n(C)c1[S+]([O-])c1cc(Cl)cc(Cl)c1 (stereo not drawn) [Compound I-115, 2-carbamoyloxymethyl-5-(3,5-dichlorophenylsulfinyl)-4-isopropyl-1-methyl-1H-imidazole] | 10 to 100 (≈ 25.6 to 256 µM) | – | – |
| [5-(3,5-dichlorophenylthio)-1-(1-fluoroethyl)-4-isopropyl-1H-imidazol-2-yl]methanol [Compound I-35] | – | – | RT IC50 ([2]; pH 8.3, 37° C., 1 hour, Tables 5 and 6): 0.69 µg/mL |
| CC(=O)Nc1ccc(Cn2c(CO)nc(C(C)C)c2Sc2cc(Cl)cc(Cl)c2)cc1 [Compound I-117, 1-(p-N-acetylaminobenzyl)-5-(3,5-dichlorophenylthio)-2-hydroxymethyl-4-isopropyl-1H-imidazole] | – | 8.18 | CC50 at 120 h ([1]; mt-4 cells): 50 µg/mL (≈ 108 µM) |
| CC(C)c1nc(CO)n(Cc2ccc(C(C)(C)C)cc2)c1Sc1cc(Cl)cc(Cl)c1 [Compound I-116, 1-(p-t-butylbenzyl)-5-(3,5-dichlorophenylthio)-2-hydroxymethyl-4-isopropyl-1H-imidazole hydrochloride] | – | > 200 | CC50 at 120 h ([1]; mt-4 cells): 25 µg/mL |
| Cc1cc(C)cc(S(=O)(=O)c2c(C(C)C)nc(CO)n2C)c1 [Compound I-107, [5-(3,5-dimethylphenylsulfonyl)-4-isopropyl-1-methyl-1H-imidazol-2-yl]methanol] | > 100 | 194 | – |
| CC(C)c1nc(CO)n(C)c1[S+]([O-])c1cc(Cl)cc(Cl)c1 (stereo not drawn) [Compound I-108, [5-(3,5-dichlorophenylsulfinyl)-4-isopropyl-1-methyl-1H-imidazol-2yl]methanol] | 10 to 100 (≈ 28.8 to 288 µM) | – | EC50 (HIV (HTLV-IIIB strain); [4]): 1000 ng/mL (≈ 2.88 µM) |
| CC(C)c1nc(CCOC(N)=O)n(Cc2ccccc2N)c1Sc1cc(Cl)cc(Cl)c1 [Compound I-144, l-(o-aminobenzyl)-2-(2-carbamoyloxyethyl)-5-(3,5-dichlorophenylthio)-4-isopropyl-1H-imidazole] | – | > 209 | CC50 at 120 h ([1]; mt-4 cells): 6.3 to 12.5 µg/mL (≈ 13.1 to 26.1 µM) |
| CC(C)c1nc(CO)n(CC(=O)c2ccccc2)c1Sc1cc(Cl)cc(Cl)c1 [Compound I-31, [1-benzoylmethyl-5-(3,5-dichlorophenylthio)-4-isopropyl-1H-imidazol-2-yl]methanol] | 100 (≈ 230 µM) | – | EC50 (HIV (HTLV-IIIB strain); [4]): 60 ng/mL (≈ 0.138 µM) |
| CC(C)c1nc(CNC(=O)C(F)(F)F)n(C)c1[S+]([O-])c1cc(Cl)cc(Cl)c1 (stereo not drawn) [Compound I-112, 5-(3,5-dichlorophenylsulfinyl)-4-isopropyl-1-methyl-2-trifluoroacetylaminomethyl-1H-imidazole] | > 100 | – | EC50 (HIV (HTLV-IIIB strain); [4]): > 100000 ng/mL |
| CC(C)c1nc(CN)n(CF)c1Sc1cc(Cl)cc(Cl)c1 [Compound I-77, 2-aminomethyl-5-(3,5-dichlorophenylthio)-1-fluoromethyl-4-isopropylimidazole] | 10 (≈ 28.7 µM) | 3.73 | – |
| CC(C)c1nc(COC(N)=O)n(Cc2ccccc2)c1Sc1cccc(Cl)c1 [Compound I-46, 1-benzyl-2-carbamoyloxymethyl-5-(3-chlorophenylthio)-4-isopropyl-1H-imidazole] | 12.5 to 25 (≈ 30.1 to 60.1 µM) | 1.92 | – |
| CC(C)c1c(Sc2cc(Cl)cc(Cl)c2)nc(COCCOC(N)=O)n1C [Compound I-65] | 12.5 to 25 (≈ 29.9 to 59.8 µM) | > 239 | – |
